Measurements taken from US20130243801A1, “EPITOPE THERAPY FOR INFECTIOUS DISEASES” (NEW YORK UNIVERSITY, priority 2010, published 2013).
Where no end group is shown, it is not given here.

Assays:
[1] = molecular target: complex of peptide 25 (aa 240-254) of M. tuberculosis Ag85B and the mouse MHC II allele I-A^b (Mycobacterium tuberculosis; mouse) (UniProt P14434); experiment: cell-based or functional assay
[2] = mouse, in vivo; for signs of toxicity: iv

Substance	frequency of IFN-γ+ P25TCRTh1 cells in the lungs of H37Rv-infected mice six hours after intravenous peptide 25 [1]	morbidity or mortality [2]	signs of toxicity [2]
P25TCR transgenic T-cell antigen receptor (on P25TCRTh1 CD4+ Th1 effector cells from P25TCR-Tg mice)	20 to 50%		
FQDAYNAAGGHNAVF [peptide 25, FQDAYNAAGGHNAVF]		no morbidity or mortality was observed	Neither group of mice displayed any signs of toxicity
ISQAVHAAHAEINEAGR [OVA peptide, ISQAVHAAHAEINEAGR, reference compound]			Neither group of mice displayed any signs of toxicity
